Experimental findings from patent publication US11634381B2, “RUNX2 transcription factor inhibitors and uses thereof” (University of Maryland, Baltimore, priority 2015, dated 2023) are described below.

This assay deals with BC cells. In words: Glucose consumption and lactate production. Type of assay: cell-based, human. Here is the method:
For measurement of glucose level, cells (100,000/well) were plated in 24-well plates and incubated overnight. Cells were treated with compound 1 (50 μM) in phenol red-free growth medium and further incubated for 6 hrs or 24 hrs. The culture medium was collected and filtered through a 0.22 μm pore membrane. Glucose level in the medium was measured using Amplex Red Glucose/Glucose Oxidase Assay Kit (Invitrogen) as per manufacturer's instructions. For lactate level, cells were treated with compound 1 for 24 hrs, and the medium was washed and replaced with HEPES-buffered Krebs-Ringer solution (Boston BioProducts) supplemented with 10 mM Glucose. Cells were incubated for 30 min, and the medium was collected and filtered through a 0.22 μm pore membrane. Lactate level in the medium was measured using Lactate Assay Kit (Sigma-Aldrich) as per manufacturer's instructions. Cell growth assays using crystal violet staining were performed to verify equal number of cells and no significant difference was found in 24 hrs of compound 1 treatment (data not shown).

Take `O=C(O)C1C2C=CC(C2)C1C(=O)Nc1ccc(Cl)c(Cl)c1` (stereo not drawn) [compound 1, 3-(N-(3,4-dichlorophenyl)carbamoyl)-5-norbornene-2-carboxylic acid]: for the setting “50 μM”, the lactate concentration result was “significantly reduced”. Besides, the glucose consumption entry (MDA-231 cells) was “Slight but insignificant inhibition”. Further, the “glucose level in the medium” value (RUNX2-expressing MCF7 and T47D, MCF7 and MDA-468 cells, 6 hrs and 24 hrs) is reported as “increased”.
